According to patent publication US10414759B2, “Phenylthiazoles and uses thereof” (Purdue Research Foundation, priority 2017, dated 2019):
≈ marks a conversion by molar mass, not a printed value. Where two headings read alike, the source gives them in different places.

Key:
[1] = test system: MRSA (2658 RCMB); test: MIC against MRSA (2658 RCMB), broth dilution; assay type: cell-based, Staphylococcus aureus; settings: Staphylococcus aureus, MRSA (2658 RCMB)
Experimental: Bacteria were cultured in cation-adjusted Mueller Hinton broth in a 96-well plate. Compounds, using triplicate samples, were added to the plate and serially diluted. […] Plates were visually inspected and the MIC was categorized as the concentration at which no visible growth of bacteria was observed. The average of triplicate MIC determinations is reported.
(§1) A bacterial solution equivalent to 0.5 McFarland standard was prepared and diluted in cation-adjusted Mueller-Hinton broth (CAMHB) to achieve a bacterial concentration of about 5×10^5 CFU/mL and seeded in 96-well plates. Enterococcus faecium was diluted in brain heart infusion broth. Enterococcus faecalis, Streptococcus pneumonia and Listeria monocytogenes were diluted in tryptone soya broth (TSB).

[2] = PBS solubility screen (turbidometric); assay type: physicochemical
Experimental: The solutions were diluted 100-fold into PBS in a 96-well plate and mixed. The absorbance of the PBS-containing plate was measured prior to addition of the test agents to determine the background absorbance. After 2 h, the presence of precipitate was detected by turbidity (absorbance at 540 nm). […] The solubility limit is reported as the highest experimental concentration with no evidence of turbidity.

[3] = test system: MRSA (USA300); test: Time-kill assay; assay type: cell-based, Staphylococcus aureus; settings: 3.0×MIC; for bactericidal / bacteriostatic behaviour in time-kill assay, in words: MRSA; for time to completely eradicate the MRSA inoculum: t-butyl series
Experimental: Aliquots (100 μL) were taken from each sample after 2, 4, 6, 8, 10, 12, and 24 hours, serially diluted in phosphate-buffered saline, and transferred to Trypticase soy agar (TSA) (Becton, Dickinson and Company, Sparks, Md., USA) plates. Plates were incubated at 37° C. for at least 16 hours before counting viable CFU/mL to determine the time required to reduce the bacterial cell count by 3-log10.

[4] = test system: MRSA NRS384 (USA300); test: MIC/MBC S. aureus strains (Table 8); assay type: cell-based; settings: Staphylococcus aureus
Experimental: as §1

[5] = test system: MRSA NRS385; test: MIC/MBC S. aureus strains (Table 8); assay type: cell-based; settings: Staphylococcus aureus
Experimental: as §1

[6] = test system: S. aureus ATCC 6538; test: MIC/MBC S. aureus strains (Table 8); assay type: cell-based; settings: Staphylococcus aureus, ATCC6538
Experimental: as §1

[7] = test system: Enterococcus faecium ATCC 700221 (VRE); test: MIC/MBC Gram-positive pathogens (Table 9); assay type: cell-based; settings: Table 9; Enterococcus faecium ATCC 700221 (VRE); read-out: MIC
Experimental: (§2) The minimum inhibitory concentration (MIC) of tested compounds and control antibiotics were determined using the broth microdilution method in accordance with the recommendations contained in the Clinical and Laboratory Standards Institute guidelines, against methicillin-sensitive (ATCC 6538 and NRS107), methicillin-resistant (MRSA), and vancomycin-resistant (VRSA) Staphylococcus aureus, Staphylococcus epidermidis, Enterococcus faecalis, E. faecium, Listeria monocytogenes, and Streptococcus pneumoniae clinical isolates. A bacterial solution equivalent to 0.5 McFarland standard was prepared and diluted in cation-adjusted Mueller-Hinton broth (CAMHB) to achieve a bacterial concentration of about 5×10^5 CFU/mL and seeded in 96-well plates. Enterococcus faecium was diluted in brain heart infusion broth. Enterococcus faecalis, Streptococcus pneumonia and Listeria monocytogenes were diluted in tryptone soya broth (TSB). Compounds and control drugs were added in the first row of 96-well plates and serially diluted (to achieve a concentration gradient ranging from 128 to 1 μg/mL). Plates were then incubated aerobically at 37° C. for at least 18 hours. The minimum bactericidal concentration (MBC) of the active compounds was tested by plating 5 μL from wells with no growth onto Tryptic soy agar (TSA) plates.

[8] = test system: Enterococcus faecalis ATCC 51299 (VRE); test: MIC/MBC Gram-positive pathogens (Table 9); assay type: cell-based; settings: Table 9, Enterococcus faecalis ATCC 51299 (VRE)
Experimental: as §1

[9] = test system: Methicillin-resistant Staphylococcus epidermidis NRS101; test: MIC/MBC Gram-positive pathogens (Table 9); assay type: cell-based
Experimental: as §1

[10] = test system: MRSA NRS119; test: MIC/MBC S. aureus strains (Table 8); assay type: cell-based; settings: Staphylococcus aureus
Experimental: as §1

[11] = test system: MRSA NRS123 (USA400); test: MIC/MBC S. aureus strains (Table 8); assay type: cell-based; settings: Staphylococcus aureus
Experimental: as §1

[12] = test system: MRSA NRS386; test: MIC/MBC S. aureus strains (Table 8); assay type: cell-based; settings: Staphylococcus aureus
Experimental: as §1

[13] = test system: S. aureus NRS107; test: MIC/MBC S. aureus strains (Table 8); assay type: cell-based, Staphylococcus aureus
Experimental: as §1

[14] = test system: VRS10 (VRSA); test: MIC/MBC S. aureus strains (Table 8); assay type: cell-based; settings: Staphylococcus aureus, Table 8, VRS10 (VRSA)
Experimental: as §2

[15] = test system: VRS12 (VRSA); test: MIC/MBC S. aureus strains (Table 8); assay type: cell-based; settings: Staphylococcus aureus, Table 8, VRS12 (VRSA)
Experimental: as §2

[16] = test system: Cephalosporin-resistant Streptococcus pneumoniae ATCC 51916; test: MIC/MBC Gram-positive pathogens (Table 9); assay type: cell-based; settings: ATCC51916
Experimental: as §1

[17] = test system: Listeria monocytogenes ATCC 19111; test: MIC/MBC Gram-positive pathogens (Table 9); assay type: cell-based
Experimental: as §1

[18] = test system: Methicillin-resistant Streptococcus pneumoniae ATCC 700677; test: MIC/MBC Gram-positive pathogens (Table 9); assay type: cell-based; settings: ATCC700677
Experimental: as §1

[19] = test system: Caco-2 cells; test: Caco-2 bidirectional permeability assay; settings: Caco-2, apical to basolateral
[20] = aqueous buffer, kinetic from dmso stock
[21] = Table 7, initial screening, read-out: minimum inhibitory concentration (MIC)
[22] = Staphylococcus aureus, Table 8, S. aureus NRS107

SMILES: Cc1nc(-c2ccc(C3=CCCC3)cc2)sc1-c1ccnc(N)n1 [Compound 27, 4-{2-[4-(Cyclopent-1-en-1-yl)phenyl]-4-methylthiazol-5-yl}pyrimidin-2-amine]
- MIC ([1]; Table 1, read-out: MIC ± SD): 3.12 µg/mL (≈ 9.33 µM)
- solubility at 2 h [2, 20]: 35 µM (≈ 11.7 µg/mL)
- melting point: 160.6 °C

SMILES: Cc1nc(-c2ccc(C3=CCCCC3)cc2)sc1-c1ccnc(N)n1 [Compound 29, 4-{2-[4-(Cyclohex-1-en-1-yl)phenyl]-4-methylthiazol-5-yl}pyrimidin-2-amine]
- MIC ([1]; Table 1, read-out: MIC ± SD): 0.78 µg/mL (≈ 2.24 µM)
- solubility at 2 h [2, 20]: 37 µM (≈ 12.9 µg/mL)
- melting point: 140.4 °C

SMILES: Cc1nc(-c2ccc(C(C)(C)C)cc2)sc1-c1ccnc(NC(=N)N2CCOCC2)n1 [Compound 61, N-(4-(2-(4-(tert-Butyl)phenyl)-4-methylthiazol-5-yl)pyrimidin-2-yl) morpholine-4-carboximidamide]
- MIC [1, 21]: 1.17 µg/mL (≈ 2.68 µM)
- bactericidal / bacteriostatic behaviour in time-kill assay, in words [3]: rapid bactericidal activity
- time to completely eradicate the MRSA inoculum [3]: within two to four hours
- MIC [4]: 4 µg/mL (≈ 9.16 µM)
- MIC [5]: 4 µg/mL (≈ 9.16 µM)
- MIC [6]: 4 µg/mL (≈ 9.16 µM)
- MIC [7]: 4 µg/mL (≈ 9.16 µM)
- MIC [8]: 4 µg/mL (≈ 9.16 µM)
- MBC [9]: 4 µg/mL (≈ 9.16 µM)
- MIC [9]: 4 µg/mL (≈ 9.16 µM)

SMILES: Cc1nc(-c2ccc(C(C)(C)C)cc2)sc1-c1ccnc(NC(=N)c2ccccn2)n1 [Compound 64, N-(4-(2-(4-(tert-Butyl)phenyl)-4-methylthiazol-5-yl)pyrimidin-2-yl) picolinimidamide]
- MIC [1, 21]: 0.78 µg/mL (≈ 1.82 µM)
- time to three-log10 reduction in the initial inoculum of MRSA [3]: within six hours
- bactericidal / bacteriostatic behaviour in time-kill assay, in words [3]: rapid bactericidal activity
- time to completely eradicate the MRSA inoculum [3]: ≤ 24 h
- MBC [10]: 4 µg/mL (≈ 9.33 µM)
- MIC [10]: 4 µg/mL (≈ 9.33 µM)
- MBC [11]: 2 µg/mL (≈ 4.67 µM)
- MIC [11]: 2 µg/mL (≈ 4.67 µM)
- MBC [4]: 4 µg/mL (≈ 9.33 µM)
- MIC [4]: 4 µg/mL (≈ 9.33 µM)
- MBC [5]: 4 µg/mL (≈ 9.33 µM)
- MIC [5]: 4 µg/mL (≈ 9.33 µM)
- MBC [12]: 2 µg/mL (≈ 4.67 µM)
- MIC [12]: 2 µg/mL (≈ 4.67 µM)
- MBC [6]: 4 µg/mL (≈ 9.33 µM)
- MIC [6]: 2 µg/mL (≈ 4.67 µM)
- MBC [13, 22]: > 64 µg/mL
- MIC [13, 22]: 64 µg/mL (≈ 149 µM)
- activity against S. aureus NRS107, in words ([13]; text b117): inactive
- MBC ([14]; read-out: MBC): 4 µg/mL (≈ 9.33 µM)
- MIC ([14]; read-out: MIC): 2 µg/mL (≈ 4.67 µM)
- MBC ([15]; read-out: MBC): 4 µg/mL (≈ 9.33 µM)
- MIC ([15]; read-out: MIC): 4 µg/mL (≈ 9.33 µM)
- MIC [7]: 4 µg/mL (≈ 9.33 µM)
- MBC [16]: 4 µg/mL (≈ 9.33 µM)
- MIC [16]: 4 µg/mL (≈ 9.33 µM)
- MIC [8]: 64 µg/mL (≈ 149 µM)
- MBC ([8]; read-out: MBC): > 64 µg/mL
- MIC ([17]; ATCC19111, Table 9, Listeria monocytogenes ATCC 19111): 2 µg/mL (≈ 4.67 µM)
- MBC values relative to MIC values against L. monocytogenes ([17]; text b122): more than three-fold higher
- MBC [9]: > 64 µg/mL
- MIC [9]: 64 µg/mL (≈ 149 µM)
- MBC [18]: 8 µg/mL (≈ 18.7 µM)
- MIC [18]: 8 µg/mL (≈ 18.7 µM)

SMILES: CNC(=C[N+](=O)[O-])NCCSCc1ccc(CN(C)C)o1 [Ranitidine, ranitidine, reference compound]
- Mean A→B Papp [19]: 0.2 ×10⁻⁶ cm/s

SMILES: COC(=O)[C@H]1[C@H]2C[C@@H]3c4[nH]c5cc(OC)ccc5c4CCN3C[C@H]2C[C@@H](OC(=O)c2cc(OC)c(OC)c(OC)c2)[C@@H]1OC [Reserpine, reserpine, reference compound]
- solubility at 2 h ([2]; phosphate buffered saline (PBS), highest concentration with no precipitate (OD540), read-out: Solubility limit): 31.3 µM (≈ 19.1 µg/mL)
